Experimental findings from patent US20130236966A1, “NK-1 Receptor Mediated Delivery of Agents to Cells” (THE UNIVERSITY OF CHICAGO, priority 2007, published 2013) are described below.

Assay [1] has as its system HeLa cells transfected with a plasmid coding for the NK-1 receptor. In words: confocal microscopy of NK-1 receptor-mediated internalization in transfected HeLa cells. The assay is classed as cell-based, human. How it is done:
(§1) NK-1 receptor transfection: A plasmid coding for the human NK-1 receptor in the mammalian expression vector pCDNA3(+) (provided by Dr. Robert Lefkowitz, Duke University) was transfected into HeLa cells using Lipofectamine 2000 according to manufacturer protocol, with 1 ng of the plasmid for each well containing 10^4 HeLa cells seeded on an 18 mm cover-slip in a 12-well plate.
(§2) Confocal Microscopy: For each sample, 10^4 U87 cells were seeded on an 18 mm cover-slip in MEM with 10% FBS overnight in a 12-well plate, then starved in MEM with 0.1% BSA for 3 hrs. The reagent (SP-sAB conjugate, SP-Fluorophore or sAB only) was filter-sterilized, diluted to the desired final concentration in MEM 0.1% BSA and added directly to the live cells in each well for 2 hrs. Untreated cells served as a negative control. Following incubation with the reagent, the cells were washed with PBS and fixed in 4% p-formaldehyde. The cells were permeablized in TBS-Tween and blocked with 10% Normal Goat Serum for 1 hr. Actin filaments were stained with FITC-phalloidin (1:250 dilution), or TRITC-phalloidin (1:3000 dilution) for 1 hr at room temperature. Nuclei were stained with DAPI (10 μg/mL) or Hoechst reagent (Invitrogen, 1:2000) for 5 minutes at room temperature. Samples were mounted using ProLong Gold reagent (Invitrogen). Confocal microscopy images were collected using a Leica SP2 with Alexa 488, Alexa 555 or Cy3 and Alexa 574 or Cy5 excited with the 488 nm laser, the 543 nm laser and the 633 laser, respectively. Multicolored images were overlaid using the imageJ software.
The ability to specifically deliver functional biomolecular agents to living cells can be a powerful research tool for studying molecular processes. Introduction of the NK-1 receptor is sufficient for the uptake of fluorescently-labeled SP. […] HeLa cells transfected with a plasmid coding for the NK-1 receptor were incubated for 2 hours with 20 nM fluorescently-labeled SP. The cells were then stained with phalloidin for visualization of actin structure.

The test system of assay [2] is normal human astrocytes (NHA). Nature of the assay: confocal microscopy of internalization in normal human astrocytes. The assay is classed as cell-based. Particulars: FIG. 3c. The method, then:
(§3) Cell lines: U87 human glioblastoma-astrocytoma epithelial-like cells (provided by Prof. Maciej S. Lesniak, University of Chicago Medical Center) were cultured in MEM with penicillin/streptomycin and 10% FBS. Normal human astrocytes (NHA) were purchased from Lonza and cultured in astrocyte growth media (Lonza) supplemented with rhEGF; Insulin, Ascorbic Acid, GA-1000, L-Glutamine and 5% FBS. HeLa cells (provided by Dr. Ronald Rock, University of Chicago) were grown in DMEM pencillin/streptomycin and with 10% FBS.
as §2, with “Samples were mounted using ProLong Gold reagent (Invitrogen). Confocal microscopy images were collected using a Leica SP2 with Alexa 488, Alexa 555 or Cy3 and Alexa 574 or Cy5 excited with the 488 nm laser, the 543 nm laser and the 633 laser, respectively. Multicolored images were overlaid using the imageJ software.” left out

For assay [3], the system named is U87 glioblastoma cells. Nature of the assay: confocal microscopy of internalization in U87 glioblastoma cells. The assay is classed as cell-based, human. The following applies: FIG. 3b. How it is done:
as §3
as §2, with “Samples were mounted using ProLong Gold reagent (Invitrogen). Confocal microscopy images were collected using a Leica SP2 with Alexa 488, Alexa 555 or Cy3 and Alexa 574 or Cy5 excited with the 488 nm laser, the 543 nm laser and the 633 laser, respectively. Multicolored images were overlaid using the imageJ software.” left out

Assay [4] relates to HeLa cells transfected with the NK-1 receptor. Nature of the assay: delivery of a polynucleotide encoding GFP. The assay is classed as cell-based, human. The following applies: 200 pM, FIG. 7. The method, then: as §1
To determine if other types of agents could also be delivered to cells expressing NK-1 receptors in accordance with the invention, HeLa cells transfected with the NK-1 receptor as described above, were incubated with an SP-polynucleotide conjugate. The polynucleotide encoded GFP operably linked to a promoter functional in the cells. The polynucleotide was also fluorescently tagged with Alexa-647 such that delivery of the polynucleotide into the cell could be monitored as well as expression of GFP.

Assay [5] relates to U87 glioblastoma cells. Nature of the assay: MTS proliferation / cell viability assay. The assay is classed as cell-based, human. The following applies: 10 nM or 20 nM, 48 hrs, FIG. 5a. The method, then:
MTS proliferation assay: U87 cells were seeded in 96-well plates at density 5000 cells/well in 0.1 mL of growth media. Cells were attached overnight and starved for 3 hours. Cells were stimulated with 20 nM sAB27-SP conjugate for 3, 5, 9, 24 and 48 hours, and SP or sAB27 alone for 48 hours in starving media. 20 μL of the MTS-based CellTiter 96 Aqueous One Solution reagent was added to each well. The plate was incubated in a humidified, 5% CO2 atmosphere until color was developed and the absorbance was recorded at 490 nm.
Due to the actin-bundling activity of sAB-27, its effect on the viability of U87 glioblastoma cells following SP-mediated delivery was investigated. Live U87 cells were treated with either 10 nM or 20 nM of the SP-sAB-27 conjugate and a cell viability assay was carried out at different time points up to 48 hrs after treatment. The viability of cells incubated with the conjugates was compared with that of cells treated with SP alone or sAB-27 alone, as well as untreated cells.

Ends that are not written are not given here. Alexa555 = Alexa Fluor 555 thiol-reactive fluorophore

Regarding “SP-Alexa555: variant of SP with a cysteine at position 3 carrying a thiol-reactive fluorophore; positive control for NK-1 receptor-mediated internalization (RPC(Alexa555)PQQFFGLM; ends and bridges not checked)”, in assay [1] (20 nM, 2 hours, confocal microscopy), the “internalization by transfected cells” value is recorded as “rapid internalization”. Besides, the “effect on actin structure” value in assay [1] (100 nM, FITC-phalloidin, FIG. 2a,b) was “actin structure is unaffected”. For the same substance, the “internalization by NHA” value in assay [2] (100 nM (figure legend)) was “no internalization was observed”. The “internalization by normal astrocytes” value in assay [2] (200 nM, 2 hr) was “undetectable”. Moreover, the “internalization by U87 cells” value in assay [3] (100 nM (figure legend)) is recorded as “internalization”; in assay [3] (200 nM, 2 hr), “readily internalize”.
As for “SP-polynucleotide conjugate: SP conjugated to an Alexa-647 tagged polynucleotide encoding GFP operably linked to a promoter (RPKPQQFFGLM; ends and bridges not checked; also: conjugated to Alexa-647 tagged GFP-encoding polynucleotide, site not given here; UniProt P20366 58-68, looked up)”, in assay [4] (2 hours), the “internalization of the Alexa-647 tagged polynucleotide” value is reported as “internalized after 2 hours” and the “localization of the internalized polynucleotide” value is given as “at least a portion co-localized with the nucleus of the cell”. In assay [4] (24 hours, confocal microscopy), the “expression of GFP” value was “expression of GFP after 24 hours”.
Regarding “SP: 11-amino acid peptide that is rapidly internalized upon binding to the NK-1 receptor; used alone as control (RPKPQQFFGLM; ends and bridges not checked; UniProt P20366 58-68, looked up)”, the cell viability result in assay [5] is “no effect on viability”. Further, the “localization with actin / effect on actin structure” value in assay [1] (20 nM, phalloidin staining, FIG. 2) is “no specific localization with actin and no apparent effect on the structure of the actin filaments”.
